In US9290427B2, “Anti-invasive compounds” (Universiteit Gent, priority 2012, dated 2016):

What was measured:
[1] = system: MCF-7/6 mammary carcinoma cell line; experiment: in vivo survival study after intracardial injection of MCF-7/6 cells; set-up: species or system Swiss nu/nu mice; conditions: for # at risk / # deaths / psurv: 10 nmol i.p. thrice a week; for pcum: cumulative probability of survival
Procedure: In order to evaluate the in vivo potency of 4-fluoro-3′,4′,5′-trimethoxychalcone 49 against the MCF-7/6 mammary carcinoma cell line, a broadly used metastasis experiment involving intracardial injection of the cancer cells was conducted. One week after subcutaneous implantation of an estrogen pellet (1 mg) in the dorsal region of the neck, […] Swiss nu/nu mice were injected in the left cardiac ventricle with 1.10^5 MCF-7/6 cells under xylazine and ketamine anesthesia (Smith W., 1993).
By virtue of injection into the left cardiac ventricle, cancer cells directly enter systemic arterial circulation, which enhances the chance for colonization (Arguello et al., 1988). […] However, since these metastases are difficultly detectable and quantifiable, survival time was chosen as the sole end point in this study.
Upon inoculation, mice were divided randomly into two equal groups. One cohort was intraperitoneally injected with 10 nmol of 49 thrice a week (160 μg·kg^−1 for a 20 g animal), while the other group only received the vehicle (100 μL of serum-free DMEM containing 1:1000 DMSO).
Twenty 6-week old female Swiss nu/nu mice were given a subcutaneous estrogen implant (1 mg) in the dorsal region of the neck. One week later, intracardial injection of 100,000 MCF-7/6 cells in […] of PBS^D^+ was performed. Animals were anesthesized priorly by i.p. injection of xylazine (5 μL, Rompun®) and ketamine (36 μL, Ketalar®). Intracardial injection was performed with a 30 G needle (½″), which was introduced into the thoracic cavity underneath the sternum. Upon protrusion of the wall of the left ventricle, blood is pumped into the syringe. At this moment, careful injection of the cancer cells can be conducted. Next, mice were randomly divided into a vehicle control and a 49-treated cohort.
From the inoculation date on, mice were treated i.p. three times a week with 100 μL of a 100 μmol·L^−1 solution of 49 in serum-free DMEM containing 1:1000 DMSO, or with vehicle alone (see “preparation procedure”). Survival numbers for both cages were recorded on a daily basis.
“Preparation procedure”: for the 49-treated group, 100 mmol·L^−1 solutions of 49 in DMSO were freshly prepared on each injection day, and diluted 1:1000 with serum-free DMEM so as to obtain injectable solutions of 100 μmol·L^−1 of 49. Control mice were given i.p. injections with 100 μL of the vehicle (1:1000 DMSO in serum-free DMEM).

MCF-7/6 cells = experiment: Sulforhodamine B (SRB) test, MCF-7/6; type: cell-based, human
Procedure: (§1) The SRB assay is used to evaluate growth effects on cells, and measures the total protein content. In this test, 5,000 cells are seeded in a cup of a 96-well plate. Upon a 24 h-attachment period, cells are treated with a certain amount of the test molecule (dissolved in DMSO). After a pre-chosen incubation time, cells are fixed with 50 μL of 50% trichloroacetic acid (2° C., 1 h). Afterward, the plate is rinsed five times with tap water, and air dried overnight.
(§2) Next, proteins are stained with 75 μL of a 0.4% solution of SRB in AcOH (30 min). Unbound SRB is subsequently removed by washing with a 1% solution of glacial AcOH, whereupon the plate is air dried. Then, bound SRB is redissolved in 100 μL of a 10 mmol·L^−1 tris(hydroxymethyl)aminomethane (Tris) buffer (pH=10.5), after which optical density is determined at 490 nm with a spectrophotometer.
Besides, also an SRB assay was performed. This test is based on the ability of the dye sulforhodamine B (SRB) to bind electrostatically on basic amino acid residues of protein in trichloroacetic acid-fixed cells. Results obtained in the SRB assay are linearly proportional to the amount of cellular protein and thus to the cell number.

TR146 cells = experiment: SRB test, TR146; type: cell-based, human; conditions: 1 or 10 μmol·L−1, 24 h
Procedure: as §1, §2
(§3) In order to verify whether the antiproliferative effects of compound 49, witnessed in BLM and MCF-7/6 cells at high concentrations, were cell specific, additional SRB and MTT assays on a further five cell lines (HCT8-E11, TR146, FaDu, 3T3-L1 and CT5.3) were conducted (FIG. 8). The results for MCF-7/6 cells were added to facilitate comparison.
The CT5.3 cell line consists of human myofibroblasts which were isolated from a colon tumor (Van Hoorde et al., 1999). […]

CT5.3 myofibroblasts = experiment: MTT test, CT5.3; type: cell-based, human; conditions: 10 μmol·L−1, 24 h
Procedure: An MTT test provides an indication of cell viability, proliferation and activity through determination of the mitochondrial conversion of 3-(4,5-dimethylthiazol-2-yl)-2,5-diphenyltetrazolium bromide (MTT), a yellow salt, into formazan, a salt that precipitates under the form of blue crystals.
In concreto, 5,000 cells are seeded in a cup of a 96 well-plate, treated with the desired amount of the test substance, and incubated for a chosen period of time. Next, 40 μL of a filtered (0.2 μm) 5 mg·mL^−1 solution of MTT in PBS is added to the cup. After 2 h of incubation at 37° C. in the dark, all liquid is removed. The obtained formazan salts are dissolved in 200 μL of DMSO, whereupon optical density is measured at 490 nm.
as §3
The CT5.3 cell line consists of human myofibroblasts which were isolated from a colon tumor (Van Hoorde et al., 1999). 3T3-L1 cells are murine fibroblasts, originating from embryo's of Swiss mice (Todaro and Green, 1963). HCT8-E11, FaDu and TR146 are human epithelial cancer cell lines. […]

For `COc1cc(C(=O)/C=C/c2ccc(F)cc2)cc(OC)c1OC` [Compound 49, (2E)-3-(4-Fluorophenyl)-1-(3,4,5-trimethoxyphenyl)propenone], which “# at risk” value ([1]; Day 5) is on record?
Its value is 10.

And the “# deaths” value ([1]; Day 5)?
The value was 1.

And the psurv ([1]; Day 5)?
Its psurv is 0.9.

What about the pcum ([1]; Day 5) of the same compound?
The pcum was 0.9.

And the “# at risk” value ([1]; Day 40)?
Its value is 9.

And the “# deaths” value ([1]; Day 40)?
The value was 1.

And the psurv ([1]; Day 40)?
Its psurv is 0.89.

What about the pcum ([1]; Day 40) of the same compound?
The pcum was 0.8.

And the “# at risk” value ([1]; Day 61)?
The value was 8.

And the psurv ([1]; Day 61)?
Its psurv is 1.

And the pcum ([1]; Day 61)?
Its pcum is 0.8.

And the number of cells (MCF-7/6 cells; 1 μmol·L−1, FIG. 6)?
Its number of cells is “smaller but still significant reduction”.

What about the “change in total protein content” value (MCF-7/6 cells; 10 μmol·L−1, 24 h, decreasing trend, not significant) of the same compound?
The value was −10%.

What about the “total protein content relative to solvent control” value (MCF-7/6 cells; 100 and 10 μmol·L−1, FIG. 6 (72 and 144 h), p<0.01) of the same compound?
Its value is “significant reduction”.

What about the “reduction in total protein content” value (MCF-7/6 cells; elevated concentrations 10-100 μmol·L−1, summary) of the same compound?
Its value is ~50%.

And the “total protein content versus solvent control” value (TR146 cells)?
Its value is “no significant differences”.

What about the “decrease in mitochondrial activity” value (CT5.3 myofibroblasts) of the same compound?
Its value is 22%.
